Where “and” joins values, the source holds several entries; their conditions need not be identical. Identical values can stand only once. Inconclusive results and toxic doses are left out.
Tested on: P388 leukemia ip, CD2F1 mice, survival T/C
Experiment: NCI In Vivo Anticancer Drug Screen. Data for tumor model P388 Leukemia (intraperitoneal) in CD2F1 (CDF1) mice
Conditions: endpoint: median survival time, higher = longer survival
Method in brief: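 Mice carrying the transplanted tumor received test compound or vehicle. Survival was recorded in each group, and the value is the treated-group measurement divided by that of the vehicle-treated control group.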

[1] = dose: 50.0 mg/kg/injection, schedule: Q01DX009 (ip), vehicle: saline with Tween-80
[2] = dose: 100.0 mg/kg/injection, schedule: Q01DX009 (ip), vehicle: saline with Tween-80
[3] = dose: 50.0 mg/kg/injection, schedule: Q01DX005 (ip), vehicle: Klucel (hydroxypropylcellulose) (HPC)
[4] = dose: 100.0 mg/kg/injection, schedule: Q01DX005 (ip), vehicle: Klucel (hydroxypropylcellulose) (HPC)
[5] = dose: 200.0 mg/kg/injection, schedule: Q01DX005 (ip), vehicle: Klucel (hydroxypropylcellulose) (HPC)
[6] = dose: 60.0 mg/kg/injection, schedule: Q01DX005 (ip), vehicle: saline with Tween-80
[7] = dose: 120.0 mg/kg/injection, schedule: Q01DX005 (ip), vehicle: saline with Tween-80
[8] = dose: 240.0 mg/kg/injection, schedule: Q01DX005 (ip), vehicle: saline with Tween-80
[9] = dose: 100.0 mg/kg/injection, schedule: Q04DX003 (ip), vehicle: saline with Tween-80
[10] = dose: 200.0 mg/kg/injection, schedule: Q01DX009 (ip), vehicle: saline with Tween-80
[11] = dose: 200.0 mg/kg/injection, schedule: Q04DX003 (ip), vehicle: saline with Tween-80
[12] = dose: 400.0 mg/kg/injection, schedule: Q04DX003 (ip), vehicle: saline with Tween-80
[13] = dose: 12.5 mg/kg/injection, schedule: Q01DX009 (ip), vehicle: saline with Tween-80
[14] = dose: 25.0 mg/kg/injection, schedule: Q01DX009 (ip), vehicle: saline with Tween-80
[15] = dose: 50.0 mg/kg/injection, schedule: Q01DX005 (ip), vehicle: saline with Tween-80
[16] = dose: 100.0 mg/kg/injection, schedule: Q01DX005 (ip), vehicle: saline with Tween-80
[17] = dose: 200.0 mg/kg/injection, schedule: Q01DX005 (ip), vehicle: saline with Tween-80
[18] = dose: 7.5 mg/kg/injection, schedule: Q01DX005 (ip), vehicle: saline with Tween-80
[19] = dose: 15.0 mg/kg/injection, schedule: Q01DX005 (ip), vehicle: saline with Tween-80
[20] = dose: 50.0 mg/kg/injection, schedule: Q01DX009 (ip), vehicle: saline
[21] = dose: 100.0 mg/kg/injection, schedule: Q01DX009 (ip), vehicle: saline
[22] = dose: 200.0 mg/kg/injection, schedule: Q01DX009 (ip), vehicle: saline

In the case of `O=C(Nc1nc2c(Cl)cccc2s1)C(F)(F)C(F)(F)C(F)(F)F` (tested in a mixture with another compound), the T/C [1] is reported as 114 % of control and the T/C [2] is reported as 101 % of control.
In the case of `C[Si](C)(C)CC[Si]12OCCN(C3CCCCC3O1)C1CCCCC1O2` (configuration not stated), the T/C [3] is reported as 94 % of control, the T/C [4] is reported as 104 % of control and the T/C [5] is reported as 105 % of control.
For `CCC(=O)Oc1ccc(N=Nc2ccc(O)c(/C=N\NC(=O)CNc3ccccc3)c2)cc1`, the T/C (dose: 100.0 mg/kg/injection, schedule: Q01DX001 (ip), vehicle: saline with Tween-80) was 88 % of control, the T/C (dose: 200.0 mg/kg/injection, schedule: Q01DX001 (ip), vehicle: saline with Tween-80) was 86 % of control and the T/C (dose: 400.0 mg/kg/injection, schedule: Q01DX001 (ip), vehicle: saline with Tween-80) was 100 % of control.
With `CCOc1ccc(C(C)c2cc3c(cc2OC)OCO3)cc1C` (configuration not stated) the T/C [3] was 109 % of control and 113 % of control, the T/C [4] was 108 % of control and 118 % of control and the T/C [5] was 116 % of control. The T/C (dose: 400.0 mg/kg/injection, schedule: Q01DX005 (ip), vehicle: Klucel (hydroxypropylcellulose) (HPC)) was 165 % of control.
In the case of `COCOc1cccc2c1C(O)CC2` (configuration not stated), the T/C [6] is reported as 100 % of control, the T/C [7] is reported as 100 % of control and the T/C [8] is reported as 98 % of control.
`ClCCCCOC1CCCCO1` (configuration not stated) was tested, and the T/C [6] was 107 % of control, the T/C [7] was 100 % of control and the T/C [8] was 105 % of control.
With `Cc1cn(C2OC(CO)C(O)C2O)c(=O)[nH]c1=O` (configuration not stated) the T/C [2] was 90 % of control, the T/C [9] was 104 % of control and the T/C [10] was 104 % of control. The T/C [11] was 104 % of control, the T/C (dose: 400.0 mg/kg/injection, schedule: Q01DX009 (ip), vehicle: saline with Tween-80) was 100 % of control and the T/C [12] was 100 % of control.
In the case of `COC(C(OC)N1CCOCC1)N1CCOCC1` (configuration not stated), the T/C [1] is reported as 100 % of control, the T/C [2] is reported as 104 % of control and the T/C [10] is reported as 113 % of control.
`O.Oc1ccccc1C=NCCC[N-]CCCN=Cc1ccccc1O.[Co]` was tested, and the T/C (dose: 3.13 mg/kg/injection, schedule: Q01DX009 (ip), vehicle: saline with Tween-80) was 102 % of control, the T/C (dose: 6.25 mg/kg/injection, schedule: Q01DX009 (ip), vehicle: saline with Tween-80) was 102 % of control and the T/C [13] was 123 % of control. For the same molecule, the T/C [14] was 100 % of control and 115 % of control.
In the case of `CC1OCC(O)C(C(O)C(=O)CN(Cc2ccccc2)Cc2ccccc2)O1` (configuration not stated), the T/C [15] is reported as 99 % of control, the T/C [16] is reported as 99 % of control and the T/C [17] is reported as 91 % of control.
`O=[N+]([O-])c1ccc(SSc2ccc([N+](=O)[O-])cn2)nc1` was tested, and the T/C [14] was 104 % of control, the T/C [1] was 86 % of control and the T/C [2] was 95 % of control.
`CP1(=O)CCC2=C1CCCC2` (configuration not stated) was tested, and the T/C [9] was 105 % of control, the T/C [11] was 107 % of control and the T/C [12] was 104 % of control.
`CC(=O)C1CC2C=CC1N(C1=CC(=O)CC(C)(C)C1)C2=O` (configuration not stated) was tested, and the T/C [1] was 108 % of control, the T/C [2] was 107 % of control and the T/C [10] was 100 % of control.
`COc1cccc2c1C(=O)c1c(O)c3c(c(O)c1C2=O)CC(O)(C(=O)COC(C)C)CC3OC1CC(N)C(O)C(C)O1` (configuration not stated) was tested, and the T/C (dose: 3.13 mg/kg/injection, schedule: Q04DX003 (ip), vehicle: water) was 97 % of control, the T/C (dose: 6.25 mg/kg/injection, schedule: Q04DX003 (ip), vehicle: water) was 100 % of control and the T/C (dose: 12.5 mg/kg/injection, schedule: Q04DX003 (ip), vehicle: water) was 100 % of control. For the same molecule, the T/C (dose: 25.0 mg/kg/injection, schedule: Q04DX003 (ip), vehicle: water) was 119 % of control and the T/C (dose: 50.0 mg/kg/injection, schedule: Q04DX003 (ip), vehicle: water) was 109 % of control.
With `O=[N+]([O-])c1ccc(N/N=C\c2c(Cl)[nH]c3ccccc23)c([N+](=O)[O-])c1` the T/C [1] was 93 % of control, the T/C [2] was 93 % of control and the T/C [10] was 87 % of control.
`C[N+]1(C)CCC2=CC(=O)CC(c3ccccc3)C2C1` (configuration not stated) was tested, and the T/C [15] was 100 % of control, the T/C [16] was 98 % of control and the T/C [17] was 103 % of control.
With `CC[CH2][Sn]([Br])([Br])[CH2]CC` the T/C (dose: 3.12 mg/kg/injection, schedule: Q04DX003 (ip), vehicle: saline) was 114 % of control and the T/C (dose: 6.25 mg/kg/injection, schedule: Q04DX003 (ip), vehicle: saline) was 109 % of control.
`O=S(=O)(Cl)CCCCS(=O)(=O)Cl` was tested, and the T/C (dose: 12.5 mg/kg/injection, schedule: Q01DX009 (ip), vehicle: Klucel (hydroxypropylcellulose) (HPC)) was 103 % of control, the T/C (dose: 25.0 mg/kg/injection, schedule: Q01DX009 (ip), vehicle: Klucel (hydroxypropylcellulose) (HPC)) was 91 % of control and the T/C (dose: 50.0 mg/kg/injection, schedule: Q01DX009 (ip), vehicle: Klucel (hydroxypropylcellulose) (HPC)) was 99 % of control and 101 % of control.
`COc1ccc(C2=NN(C(C)=O)C(c3cc(OC)c(OC)cc3N)S2)cc1OC` (configuration not stated) (tested in a mixture with another compound) was tested, and the T/C [18] was 97 % of control, the T/C [19] was 92 % of control and the T/C (dose: 30.0 mg/kg/injection, schedule: Q01DX005 (ip), vehicle: saline with Tween-80) was 90 % of control.
With `CSCC1(C)OC(c2ccccc2)=Nc2ccccc21` (configuration not stated) the T/C (dose: 100.0 mg/kg/injection, schedule: Q04DX002 (ip), vehicle: saline with Tween-80) was 97 % of control, the T/C (dose: 200.0 mg/kg/injection, schedule: Q04DX002 (ip), vehicle: saline with Tween-80) was 98 % of control and the T/C (dose: 400.0 mg/kg/injection, schedule: Q04DX002 (ip), vehicle: saline with Tween-80) was 106 % of control.
For `O=C1NC(=O)N(C(F)(F)F)C(F)(F)N1C(F)(F)F`, the T/C [3] was 107 % of control and the T/C [4] was 107 % of control.
In the case of `Nc1nc(N)n2c(N)nnc2n1`, the T/C [20] is reported as 105 % of control, the T/C [21] is reported as 107 % of control and the T/C [22] is reported as 102 % of control.
For `CCN(CCNc1ccc(C)c2sc3cc(Cl)ccc3c(=O)c12)CC(C)(C)O`, the T/C (dose: 12.5 mg/kg/injection, schedule: Q01DX005 (ip), vehicle: saline with Tween-80) was 95 % of control, the T/C (dose: 25.0 mg/kg/injection, schedule: Q01DX005 (ip), vehicle: saline with Tween-80) was 92 % of control and the T/C [15] was 88 % of control and 97 % of control. The T/C [17] was 95 % of control.
`CCN(CC)CCCC(C)Nc1cc(/C=C/c2ccc(Cl)cc2)nc2ccc(N(C)C)cc12` (configuration not stated) was tested, and the T/C [18] was 100 % of control and the T/C [19] was 104 % of control.
In the case of `CCN(CC)CCNc1ccc(COC(N)=O)c2sc3ccccc3c(=O)c12`, the T/C (dose: 100.0 mg/kg/injection, schedule: Q04DX003 (ip), vehicle: saline) is reported as 117 % of control and the T/C (dose: 200.0 mg/kg/injection, schedule: Q04DX003 (ip), vehicle: saline) is reported as 122 % of control.
In the case of `COC(=O)C1CC2(C(=O)O)CC(C(=O)O)(CC(C(=O)OC)C2=O)C1=O` (configuration not stated), the T/C (dose: 50.0 mg/kg/injection, schedule: Q04DX003 (ip), vehicle: saline with Tween-80) is reported as 101 % of control, the T/C [9] is reported as 101 % of control and the T/C [11] is reported as 104 % of control.
`O=C(CNC(=O)OCc1ccccc1)NCC(=O)NC(Cc1c[nH]c2ccccc12)C(=O)O` (configuration not stated) was tested, and the T/C (dose: 50.0 mg/kg/injection, schedule: Q01DX005 (ip), vehicle: suspension in saline) was 99 % of control, the T/C (dose: 100.0 mg/kg/injection, schedule: Q01DX005 (ip), vehicle: suspension in saline) was 97 % of control and the T/C (dose: 200.0 mg/kg/injection, schedule: Q01DX005 (ip), vehicle: suspension in saline) was 105 % of control.
For `Clc1ccc(Cl)c(N=NNc2cc(Cl)ccc2Cl)c1`, the T/C [13] was 96 % of control, the T/C [14] was 99 % of control and the T/C (dose: 25.0 mg/kg/injection, schedule: Q01DX009 (ip), vehicle: saline) was 98 % of control. The T/C [1] was 97 % of control, the T/C [20] was 94 % of control and the T/C [2] was 98 % of control. The T/C [21] was 92 % of control, the T/C [9] was 104 % of control and the T/C [10] was 88 % of control. The T/C [22] was 92 % of control, the T/C [11] was 104 % of control and the T/C [12] was 95 % of control.
`CCCCCCCCCCCCCCCC[n+]1ccc(C(N)=O)cc1` was tested, and the T/C (dose: 3.0 mg/kg/injection, schedule: Q01DX009 (ip), vehicle: saline with Tween-80) was 109 % of control, the T/C (dose: 6.0 mg/kg/injection, schedule: Q01DX009 (ip), vehicle: saline with Tween-80) was 118 % of control and the T/C (dose: 12.0 mg/kg/injection, schedule: Q01DX009 (ip), vehicle: saline with Tween-80) was 109 % of control.
In the case of `Cc1nc2ccccc2c(=O)n1/N=C/c1cccc([N+](=O)[O-])c1`, the T/C [15] is reported as 104 % of control, the T/C [16] is reported as 99 % of control and the T/C [17] is reported as 98 % of control.

Reference: PubChem BioAssay AID330 (DTP/NCI, 2004)
